Results published in paper PMC4415987 (Biomarkers : biochemical indicators of exposure, response, …, 2009).

Legend:
lymphocyte mAChRs = format: binding, human; settings: for LOAEL toward mAChRs: human lymphocytes in vitro, PCB values regardless of the presence of MeHg
MAO-B = target: T1, MAO-B (Homo sapiens, UniProt P27338); assay: Platelet MAO-B activity; format: biochemical; settings: human platelets in vitro; for LOAEL toward MAO-B: not modified by MeHg addition
T1 sequence (P27338 1-520): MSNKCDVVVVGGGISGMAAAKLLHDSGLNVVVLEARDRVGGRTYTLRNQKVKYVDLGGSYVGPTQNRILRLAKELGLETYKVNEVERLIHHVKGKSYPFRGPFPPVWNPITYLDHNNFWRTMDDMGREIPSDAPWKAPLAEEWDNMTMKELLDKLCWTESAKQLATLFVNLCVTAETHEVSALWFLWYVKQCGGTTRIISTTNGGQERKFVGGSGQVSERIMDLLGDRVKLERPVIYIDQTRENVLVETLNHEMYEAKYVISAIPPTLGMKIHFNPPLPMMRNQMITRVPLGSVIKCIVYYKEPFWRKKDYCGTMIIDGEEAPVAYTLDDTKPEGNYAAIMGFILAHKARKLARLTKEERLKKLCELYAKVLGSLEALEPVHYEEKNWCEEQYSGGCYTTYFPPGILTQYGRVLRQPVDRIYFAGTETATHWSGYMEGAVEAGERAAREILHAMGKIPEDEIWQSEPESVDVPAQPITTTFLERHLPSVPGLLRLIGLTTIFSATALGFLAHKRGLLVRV

[1] = weaning rats given 1 mg MeHg kg−1 daily perinatally, cited from earlier work

SMILES | LOAEL toward mAChRs (lymphocyte mAChRs) | LOAEL toward MAO-B (MAO-B) | further results
Oc1c(Cl)cc(-c2ccc(Cl)c(Cl)c2)c(Cl)c1Cl [4-OH-PCB-107] | 1 µM | 10 µM | –
[CH3][Hg][Cl] [MeHg, methylmercury] | 1 µM | – | IC50 (lymphocyte mAChRs; read-out: IC50, inhibition of [3H]QNB binding to lymphocyte mAChRs): 5 ± 0.9 µM; Hg concentration in the blood ([1]; ref Coccini et al. 2007a): 1.3 ± 0.4 µg/mL; Hg concentration in the brain ([1]; ref Coccini et al. 2007b): 1.5–2.8 ppm; inhibitory effect on MAO-B activity (MAO-B; MeHg up to 1 mM): negligible
Clc1ccc(-c2ccc(Cl)cc2Cl)cc1 [PCB-28] | 1 µM | 10 µM | –
Clc1ccc(-c2ccc(Cl)c(Cl)c2)cc1Cl [PCB-77] | 0.1 µM | 10 µM | –
Clc1ccc(-c2ccc(Cl)c(Cl)c2Cl)cc1Cl [PCB-105] | 1 µM | 1 µM | –
Clc1ccc(-c2cc(Cl)c(Cl)cc2Cl)cc1Cl [PCB-118] | 1 µM | 10 µM | –
Clc1cc(Cl)c(-c2cc(Cl)c(Cl)cc2Cl)cc1Cl [PCB-153, 2,2′,4,4′,5,5′-hexachlorobiphenyl] | 1 µM | – | IC50, MAO-B activity (MAO-B; in the presence or absence of 1 mM MeHg): No effect
